According to ChEMBL document CHEMBL1909046, “DrugMatrix in vitro pharmacology data”:
pIC50, pKi: −log10 of the molar value.

How the values were obtained:
[1] = DRUGMATRIX: Sodium/nucleoside co-transporter radioligand binding (ligand: nitrobenzylthioinosine); type: cell membranes, Cavia porcellus, Dunkin-Hartley, Cerebral cortex, Membrane; details: Not Active = under 50% inhibition at 10 µM
[2] = molecular target: T1, Alpha-1B adrenergic receptor (Rattus norvegicus, UniProt P15823); experiment: DRUGMATRIX: Alpha-1B adrenergic receptor radioligand binding (ligand: prazosin); type: cell membranes, Wistar, Liver, Membrane; details: Not Active = under 50% inhibition at 10 µM
T1 sequence (P15823 whole entry): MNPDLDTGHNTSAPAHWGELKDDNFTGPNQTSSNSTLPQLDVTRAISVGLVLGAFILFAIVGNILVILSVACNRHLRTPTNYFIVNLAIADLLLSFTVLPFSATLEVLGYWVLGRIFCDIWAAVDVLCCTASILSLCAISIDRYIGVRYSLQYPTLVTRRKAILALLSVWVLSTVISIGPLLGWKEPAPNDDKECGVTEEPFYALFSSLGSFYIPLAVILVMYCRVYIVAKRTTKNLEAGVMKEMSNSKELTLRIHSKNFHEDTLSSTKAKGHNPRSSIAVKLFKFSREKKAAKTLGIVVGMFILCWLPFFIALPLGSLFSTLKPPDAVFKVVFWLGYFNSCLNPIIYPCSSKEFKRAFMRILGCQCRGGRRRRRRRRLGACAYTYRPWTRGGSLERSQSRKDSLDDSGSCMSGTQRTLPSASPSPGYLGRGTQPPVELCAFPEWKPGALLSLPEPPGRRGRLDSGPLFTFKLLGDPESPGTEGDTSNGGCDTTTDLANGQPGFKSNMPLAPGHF

[3] = molecular target: Aldo-keto reductase family 1 member B1 (Rattus norvegicus, UniProt P07943); experiment: biochemical; type: tissue-based, Lens of camera-type eye;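 also: inhibition of aldose reductase enzyme activity, measured with DL-glyceraldehyde as the substrate; in other assays of this panel Not Active means under 50% inhibition at 10 µM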
[4] = molecular target: T2, C-X-C chemokine receptor type 1 (Homo sapiens, UniProt P25024); also: in other assays of this panel Not Active means under 50% inhibition at 10 µM
T2 sequence (P25024 whole entry): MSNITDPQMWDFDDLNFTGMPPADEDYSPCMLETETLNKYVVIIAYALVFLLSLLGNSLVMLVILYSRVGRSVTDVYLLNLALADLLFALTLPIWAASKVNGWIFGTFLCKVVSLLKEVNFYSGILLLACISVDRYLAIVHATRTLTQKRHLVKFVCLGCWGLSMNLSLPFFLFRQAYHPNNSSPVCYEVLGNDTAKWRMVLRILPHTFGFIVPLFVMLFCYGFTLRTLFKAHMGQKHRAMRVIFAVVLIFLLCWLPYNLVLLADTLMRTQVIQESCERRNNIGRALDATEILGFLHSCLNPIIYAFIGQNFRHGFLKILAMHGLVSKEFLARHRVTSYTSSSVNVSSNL

[5] = molecular target: T3, Cysteinyl leukotriene receptor 1 (Homo sapiens, UniProt Q9Y271); type: cell membranes, Membrane; details: cho-k1; also: in other assays of this panel Not Active means under 50% inhibition at 10 µM
T3 sequence (Q9Y271 whole entry): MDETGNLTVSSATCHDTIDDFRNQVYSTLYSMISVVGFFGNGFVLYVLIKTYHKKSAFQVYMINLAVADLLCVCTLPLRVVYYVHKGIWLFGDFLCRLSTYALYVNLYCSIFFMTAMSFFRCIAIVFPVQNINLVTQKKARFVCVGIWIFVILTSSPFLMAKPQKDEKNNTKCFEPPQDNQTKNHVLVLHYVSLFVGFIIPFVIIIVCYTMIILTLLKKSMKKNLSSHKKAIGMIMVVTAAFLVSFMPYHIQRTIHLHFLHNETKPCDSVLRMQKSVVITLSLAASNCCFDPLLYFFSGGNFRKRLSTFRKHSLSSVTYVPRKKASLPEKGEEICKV

[6] = molecular target: T4, Muscarinic acetylcholine receptor M4 (Homo sapiens, UniProt P08173); type: cell membranes, CHO-K1, Membrane; details: for IC50: cho-k1; as to all read-outs here: in other assays of this panel Not Active means under 50% inhibition at 10 µM
T4 sequence (P08173 whole entry): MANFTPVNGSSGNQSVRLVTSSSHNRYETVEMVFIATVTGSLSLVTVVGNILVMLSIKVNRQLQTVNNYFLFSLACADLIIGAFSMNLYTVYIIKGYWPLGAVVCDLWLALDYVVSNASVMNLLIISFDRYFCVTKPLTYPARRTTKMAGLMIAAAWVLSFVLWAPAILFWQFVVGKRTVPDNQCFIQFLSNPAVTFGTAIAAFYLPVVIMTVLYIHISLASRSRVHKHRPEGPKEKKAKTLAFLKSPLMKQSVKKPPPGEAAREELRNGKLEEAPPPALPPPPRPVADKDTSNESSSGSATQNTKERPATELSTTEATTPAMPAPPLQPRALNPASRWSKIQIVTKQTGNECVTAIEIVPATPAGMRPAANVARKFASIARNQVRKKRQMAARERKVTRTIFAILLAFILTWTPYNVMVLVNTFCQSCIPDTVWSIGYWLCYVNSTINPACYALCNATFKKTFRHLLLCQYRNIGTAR

Estrogen receptor = molecular target: T5, Estrogen receptor (Homo sapiens, UniProt P03372); details: sf9; also: in other assays of this panel Not Active means under 50% inhibition at 10 µM
T5 sequence (P03372 whole entry): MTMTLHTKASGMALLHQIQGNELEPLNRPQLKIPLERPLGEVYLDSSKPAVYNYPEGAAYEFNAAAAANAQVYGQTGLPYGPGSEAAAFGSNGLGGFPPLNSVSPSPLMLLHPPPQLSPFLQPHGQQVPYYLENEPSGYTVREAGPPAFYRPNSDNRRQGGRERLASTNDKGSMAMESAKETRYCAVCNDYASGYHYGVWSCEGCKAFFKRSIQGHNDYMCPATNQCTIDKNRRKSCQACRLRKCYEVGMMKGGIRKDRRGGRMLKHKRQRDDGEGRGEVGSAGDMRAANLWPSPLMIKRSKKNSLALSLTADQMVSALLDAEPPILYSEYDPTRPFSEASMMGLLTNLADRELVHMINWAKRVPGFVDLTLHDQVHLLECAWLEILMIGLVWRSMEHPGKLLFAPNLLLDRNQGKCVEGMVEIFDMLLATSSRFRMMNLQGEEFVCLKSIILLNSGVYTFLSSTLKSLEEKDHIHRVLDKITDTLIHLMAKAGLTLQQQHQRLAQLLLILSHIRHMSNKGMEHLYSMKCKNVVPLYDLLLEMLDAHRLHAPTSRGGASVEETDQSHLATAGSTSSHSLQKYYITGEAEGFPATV

Row | Structure (SMILES) | IC50 [1] | Ki [1] | IC50 [2] | IC50 [3] | IC50 [4] | IC50 [5] | IC50 [6] | IC50 (Estrogen receptor) | pIC50 ([2]; read-out: IC50) | pKi ([2]; read-out: Ki) | pIC50 ([6]; read-out: IC50) | pKi ([6]; read-out: Ki)
1 | CCn1cc(C(=O)O)c(=O)c2cc(F)c(N3CCNC(C)C3)c(F)c21 (configuration not stated) [LOMEFLOXACIN] | Not Active | Not Active | Not Active | Not Active | Not Active | Not Active | Not Active | Not Active | – | – | – | –
2 | CN1CCCC(CN2c3ccccc3Sc3ccccc32)C1 (configuration not stated) [MEPAZINE] | Not Active | Not Active | – | Not Active | Not Active | Not Active | – | Not Active | 7.21 | 7.47 | 6.86 | 7.72
3 | Cc1cccc(C)c1NC(=O)C1CCCCN1C (configuration not stated) [MEPIVACAINE] | Not Active | Not Active | Not Active | Not Active | Not Active | Not Active | Not Active | Not Active | – | – | – | –
4 | CC(C)(C)NCC(O)COc1cccc2c1CC(O)C(O)C2 (configuration not stated) [NADOLOL] | Not Active | Not Active | Not Active | Not Active | Not Active | Not Active | Not Active | Not Active | – | – | – | –
5 | C[C@]12CC[C@H]3[C@@H](CCC4=CC(=O)CC[C@@H]43)[C@@H]1CC[C@@H]2O [NANDROLONE] | Not Active | Not Active | Not Active | Not Active | Not Active | Not Active | Not Active | Not Active | – | – | – | –
6 | C[C@@H]1C/C=C/C=C/C=C/C=C/[C@H](O[C@@H]2O[C@H](C)[C@@H](O)[C@H](N)[C@@H]2O)C[C@@H]2O[C@](O)(C[C@@H](O)C[C@H]3O[C@@H]3/C=C/C(=O)O1)C[C@H](O)[C@H]2C(=O)O [NATAMYCIN] | Not Active | Not Active | Not Active | Not Active | Not Active | Not Active | Not Active | Not Active | – | – | – | –
7 | CN(C)C(=O)Oc1cccc([N+](C)(C)C)c1.[Br-] [NEOSTIGMINE BROMIDE] | Not Active | Not Active | Not Active | Not Active | Not Active | Not Active | Not Active | Not Active | – | – | – | –
8 | NC(=O)c1cccnc1 [NIACINAMIDE] | Not Active | Not Active | Not Active | Not Active | Not Active | Not Active | Not Active | Not Active | – | – | – | –
9 | CN1C(=O)CN=C(c2ccccc2)c2cc([N+](=O)[O-])ccc21 [NIMETAZEPAM] | Not Active | Not Active | Not Active | Not Active | Not Active | Not Active | Not Active | Not Active | – | – | – | –
10 | C[C@@H]1O[C@@H](O[C@H]2C[C@@H](O)[C@]3(CO)[C@H]4[C@H](O)C[C@]5(C)[C@@H](C6=CC(=O)OC6)CC[C@]5(O)[C@@H]4CC[C@]3(O)C2)[C@H](O)[C@H](O)[C@H]1O [OUABAIN] | Not Active | Not Active | Not Active | Not Active | Not Active | Not Active | Not Active | Not Active | – | – | – | –
